According to ChEMBL document CHEMBL1811886 (J Med Chem, 2011):

What was measured:
[1] = Terminal half life in Beagle dog at 1 mg/kg, iv after 6 to 24 hrs by LC-MS/MS analysis; assay type: ADME, organism-based, Canis lupus familiaris; parameters: dose 1 mg/kg, route intravenous; settings: in vivo, read-out: beta t1/2 (converted)
[2] = Metabolic stability of compound in human liver microsomes assessed as compound remaining at 40 mins; assay type: ADME, Microsome; settings: read-out: Stability
Plasma = assay: Clearance in Sprague-Dawley rat plasma at 10 mg/kg, po administered as single dose after 24 hrs by LC-MS/MS analysis; assay type: ADME, organism-based; parameters: dose 10 mg/kg, route oral; settings: in vivo
[3] = Cmax in cynomolgus monkey at 1 mg/kg, po after 6 to 24 hrs by LC-MS/MS analysis; assay type: ADME, organism-based, Macaca fascicularis; parameters: dose 1 mg/kg, route oral; settings: in vivo
[4] = Metabolic stability of compound in mouse liver microsomes assessed as half life; assay type: ADME, Microsome
Cytochrome P450 2D6 = Cytochrome P450 2D6 (Homo sapiens, UniProt P10635); assay: Inhibition of CYP2D6; assay type: ADME
Cytochrome P450 2D6, sequence (P10635 whole entry): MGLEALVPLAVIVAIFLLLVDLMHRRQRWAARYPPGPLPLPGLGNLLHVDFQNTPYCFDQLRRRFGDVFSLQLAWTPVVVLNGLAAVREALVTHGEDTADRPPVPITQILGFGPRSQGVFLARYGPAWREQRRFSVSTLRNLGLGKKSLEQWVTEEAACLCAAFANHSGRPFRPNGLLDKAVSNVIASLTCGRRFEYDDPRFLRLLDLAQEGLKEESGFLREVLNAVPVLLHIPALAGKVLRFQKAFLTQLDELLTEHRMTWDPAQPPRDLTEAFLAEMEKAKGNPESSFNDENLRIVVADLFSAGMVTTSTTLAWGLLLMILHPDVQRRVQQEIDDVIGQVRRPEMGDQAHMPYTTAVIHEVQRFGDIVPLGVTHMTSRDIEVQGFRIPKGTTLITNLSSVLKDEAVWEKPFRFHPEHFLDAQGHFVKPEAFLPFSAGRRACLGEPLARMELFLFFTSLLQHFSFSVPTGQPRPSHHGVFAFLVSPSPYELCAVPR

[5] = AUC in Beagle dog at 3 mg/kg, po after 6 to 24 hrs by LC-MS/MS analysis; assay type: ADME, organism-based, Canis lupus familiaris; parameters: dose 3 mg/kg, route oral; settings: plasma
[6] = Metabolic stability of compound in rat liver microsomes assessed as half life; assay type: ADME, Microsome
[7] = AUC in fasted Sprague-Dawley rat at 3 mg/kg, po after 6 to 24 hrs by LC-MS/MS analysis; assay type: ADME, organism-based; parameters: dose 3 mg/kg, route oral; settings: plasma
Cytochrome P450 2C9 = Cytochrome P450 2C9 (Homo sapiens, UniProt P11712); assay: Inhibition of CYP2C9; assay type: ADME
Cytochrome P450 2C9, sequence (P11712 whole entry): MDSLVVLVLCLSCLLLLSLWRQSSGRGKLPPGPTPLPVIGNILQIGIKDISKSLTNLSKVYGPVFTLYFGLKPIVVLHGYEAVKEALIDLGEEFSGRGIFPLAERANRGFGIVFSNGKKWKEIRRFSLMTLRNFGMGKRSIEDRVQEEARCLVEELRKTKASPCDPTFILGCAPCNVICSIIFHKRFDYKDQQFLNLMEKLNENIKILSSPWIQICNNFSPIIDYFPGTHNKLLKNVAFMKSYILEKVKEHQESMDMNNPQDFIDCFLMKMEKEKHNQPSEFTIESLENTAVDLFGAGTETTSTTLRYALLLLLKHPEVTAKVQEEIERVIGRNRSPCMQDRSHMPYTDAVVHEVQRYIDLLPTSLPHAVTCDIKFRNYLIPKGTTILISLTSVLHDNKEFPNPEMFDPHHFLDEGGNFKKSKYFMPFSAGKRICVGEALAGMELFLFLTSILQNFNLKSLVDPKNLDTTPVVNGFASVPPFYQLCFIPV

[8] = Terminal half life in Beagle dog at 3 mg/kg, po after 6 to 24 hrs by LC-MS/MS analysis; assay type: ADME, organism-based, Canis lupus familiaris; parameters: dose 3 mg/kg, route oral; settings: in vivo, read-out: beta t1/2 (converted)
[9] = Plasma protein binding in Beagle dog after 1 hr by LC/MS/MS analysis; assay type: ADME, cell-free, Canis lupus familiaris; settings: read-out: PPB (converted)
[10] = AUC in cynomolgus monkey at 1 mg/kg, po after 6 to 24 hrs by LC-MS/MS analysis; assay type: ADME, organism-based, Macaca fascicularis; parameters: dose 1 mg/kg, route oral; settings: plasma
Heart = assay: Clearance in Sprague-Dawley rat heart at 10 mg/kg, po administered as single dose after 24 hrs by LC-MS/MS analysis; assay type: ADME, organism-based; parameters: dose 10 mg/kg, route oral; settings: in vivo
[11] = Ratio of drug uptake in brain to plasma of fasted Sprague-Dawley rat at 1 mg/kg, iv after 6 to 24 hrs by LC-MS/MS analysis; assay type: ADME, organism-based; parameters: dose 1 mg/kg, route intravenous; settings: read-out: BPR
[12] = Clearance in Beagle dog at 1 mg/kg, iv after 6 to 24 hrs by LC-MS/MS analysis; assay type: ADME, organism-based, Canis lupus familiaris; parameters: dose 1 mg/kg, route intravenous; settings: in vivo
Cytochrome P450 3A4 = Cytochrome P450 3A4 (Homo sapiens, UniProt P08684); assay: Inhibition of CYP3A4; assay type: ADME
Cytochrome P450 3A4, sequence (P08684 whole entry): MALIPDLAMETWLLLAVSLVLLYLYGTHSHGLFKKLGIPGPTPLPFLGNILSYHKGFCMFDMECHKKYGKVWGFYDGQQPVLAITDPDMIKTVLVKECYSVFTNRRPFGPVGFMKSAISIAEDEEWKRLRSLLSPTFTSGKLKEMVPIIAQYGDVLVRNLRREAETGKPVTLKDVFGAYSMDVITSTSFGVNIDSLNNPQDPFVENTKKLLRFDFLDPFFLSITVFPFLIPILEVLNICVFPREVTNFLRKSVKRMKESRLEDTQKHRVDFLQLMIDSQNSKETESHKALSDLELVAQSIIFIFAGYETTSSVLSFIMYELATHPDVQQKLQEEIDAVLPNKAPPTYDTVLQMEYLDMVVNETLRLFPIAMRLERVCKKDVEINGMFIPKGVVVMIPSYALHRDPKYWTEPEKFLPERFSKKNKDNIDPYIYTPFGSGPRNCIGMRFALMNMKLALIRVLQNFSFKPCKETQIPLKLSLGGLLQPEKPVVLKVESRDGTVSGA

[13] = Metabolic stability of compound in dog liver microsomes assessed as half life; assay type: ADME, Canis lupus familiaris, Microsome
[14] = Plasma protein binding in human after 1 hr by LC/MS/MS analysis; assay type: ADME, cell-free; settings: read-out: PPB (converted)
[15] = Clearance in cynomolgus monkey at 1 mg/kg, iv after 6 to 24 hrs by LC-MS/MS analysis; assay type: ADME, organism-based, Macaca fascicularis; parameters: dose 1 mg/kg, route intravenous; settings: in vivo
[16] = Cmax in fasted Sprague-Dawley rat at 3 mg/kg, po after 6 to 24 hrs by LC-MS/MS analysis; assay type: ADME, organism-based; parameters: dose 3 mg/kg, route oral; settings: in vivo
Cytochrome P450 2C19 = Cytochrome P450 2C19 (Homo sapiens, UniProt P33261); assay: Inhibition of CYP2C19; assay type: ADME
Cytochrome P450 2C19, sequence (P33261 whole entry): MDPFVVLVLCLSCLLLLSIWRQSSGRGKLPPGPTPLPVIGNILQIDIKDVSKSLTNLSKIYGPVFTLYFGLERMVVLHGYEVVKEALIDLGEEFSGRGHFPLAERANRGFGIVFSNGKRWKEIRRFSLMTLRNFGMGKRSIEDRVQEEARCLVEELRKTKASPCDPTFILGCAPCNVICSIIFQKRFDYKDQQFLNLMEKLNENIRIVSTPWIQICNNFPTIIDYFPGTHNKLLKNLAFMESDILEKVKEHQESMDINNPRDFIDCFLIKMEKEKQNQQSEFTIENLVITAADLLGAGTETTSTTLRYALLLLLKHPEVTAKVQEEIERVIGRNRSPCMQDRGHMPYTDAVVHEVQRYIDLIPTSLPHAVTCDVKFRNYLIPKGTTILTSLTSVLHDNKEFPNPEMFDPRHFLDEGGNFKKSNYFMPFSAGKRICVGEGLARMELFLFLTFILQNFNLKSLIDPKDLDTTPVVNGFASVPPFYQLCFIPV

[17] = Volume of distribution in Beagle dog at 1 mg/kg, iv after 6 to 24 hrs by LC-MS/MS analysis; assay type: ADME, organism-based, Canis lupus familiaris; parameters: dose 1 mg/kg, route intravenous; settings: in vivo
[18] = Volume of distribution in fasted Sprague-Dawley rat at 1 mg/kg, iv after 6 to 24 hrs by LC-MS/MS analysis; assay type: ADME, organism-based; parameters: dose 1 mg/kg, route intravenous; settings: in vivo
[19] = Metabolic stability of compound in human liver microsomes assessed as half life; assay type: ADME, Microsome
Canis familiaris = assay: Cmax in Beagle dog at 3 mg/kg, po after 6 to 24 hrs by LC-MS/MS analysis; assay type: ADME, organism-based, Canis lupus familiaris; parameters: dose 3 mg/kg, route oral; settings: in vivo
[20] = Volume of distribution in cynomolgus monkey at 1 mg/kg, iv after 6 to 24 hrs by LC-MS/MS analysis; assay type: ADME, organism-based, Macaca fascicularis; parameters: dose 1 mg/kg, route intravenous; settings: in vivo
Kidney = assay: Clearance in Sprague-Dawley rat kidney at 10 mg/kg, po administered as single dose after 24 hrs by LC-MS/MS analysis; assay type: ADME, organism-based; parameters: dose 10 mg/kg, route oral; settings: in vivo
[21] = Oral bioavailability in Beagle dog at 3 mg/kg after 6 to 24 hrs by LC-MS/MS analysis; assay type: ADME, organism-based, Canis lupus familiaris; settings: in vivo
[22] = Metabolic stability of compound in mouse liver microsomes assessed as compound remaining at 40 mins; assay type: ADME, Microsome; settings: read-out: Stability
[23] = Fraction unbound in rat brain; assay type: ADME, tissue-based
[24] = Terminal half life in fasted Sprague-Dawley rat at 1 mg/kg, iv after 6 to 24 hrs by LC-MS/MS analysis; assay type: ADME, organism-based; parameters: dose 1 mg/kg, route intravenous; settings: in vivo, read-out: beta t1/2 (converted)
Liver = assay: Clearance in Sprague-Dawley rat liver at 10 mg/kg, po administered as single dose after 24 hrs by LC-MS/MS analysis; assay type: ADME, organism-based; parameters: dose 10 mg/kg, route oral; settings: in vivo
[25] = Terminal half life in cynomolgus monkey at 1 mg/kg, po after 6 to 24 hrs by LC-MS/MS analysis; assay type: ADME, organism-based, Macaca fascicularis; parameters: dose 1 mg/kg, route oral; settings: in vivo, read-out: beta t1/2 (converted)
[26] = Oral bioavailability in fasted Sprague-Dawley rat at 3 mg/kg, po after 6 to 24 hrs by LC-MS/MS analysis; assay type: ADME, organism-based; settings: in vivo
[27] = Metabolic stability of compound in rat liver microsomes assessed as compound remaining at 40 mins; assay type: ADME, Microsome; settings: read-out: Stability
[28] = Terminal half life in fasted Sprague-Dawley rat at 3 mg/kg, po after 6 to 24 hrs by LC-MS/MS analysis; assay type: ADME, organism-based; parameters: dose 3 mg/kg, route oral; settings: in vivo, read-out: beta t1/2 (converted)
[29] = Oral bioavailability in cynomolgus monkey at 1 mg/kg after 6 to 24 hrs by LC-MS/MS analysis; assay type: ADME, organism-based, Macaca fascicularis; settings: in vivo
[30] = Metabolic stability of compound in dog liver microsomes assessed as compound remaining at 40 mins; assay type: ADME, Canis lupus familiaris, Microsome; settings: read-out: Stability
[31] = Ratio of drug uptake in brain to plasma of Beagle dog at 5 mg/kg, po after 6 to 24 hrs by LC-MS/MS analysis; assay type: ADME, organism-based, Canis lupus familiaris; parameters: dose 5 mg/kg, route oral; settings: read-out: BPR
Brain = assay: Clearance in Sprague-Dawley rat brain at 10 mg/kg, po administered as single dose after 24 hrs by LC-MS/MS analysis; assay type: ADME, organism-based; parameters: dose 10 mg/kg, route oral; settings: in vivo
Cytochrome P450 1A2 = Cytochrome P450 1A2 (Homo sapiens, UniProt P05177); assay: Inhibition of CYP1A2; assay type: ADME
Cytochrome P450 1A2, sequence (P05177 whole entry): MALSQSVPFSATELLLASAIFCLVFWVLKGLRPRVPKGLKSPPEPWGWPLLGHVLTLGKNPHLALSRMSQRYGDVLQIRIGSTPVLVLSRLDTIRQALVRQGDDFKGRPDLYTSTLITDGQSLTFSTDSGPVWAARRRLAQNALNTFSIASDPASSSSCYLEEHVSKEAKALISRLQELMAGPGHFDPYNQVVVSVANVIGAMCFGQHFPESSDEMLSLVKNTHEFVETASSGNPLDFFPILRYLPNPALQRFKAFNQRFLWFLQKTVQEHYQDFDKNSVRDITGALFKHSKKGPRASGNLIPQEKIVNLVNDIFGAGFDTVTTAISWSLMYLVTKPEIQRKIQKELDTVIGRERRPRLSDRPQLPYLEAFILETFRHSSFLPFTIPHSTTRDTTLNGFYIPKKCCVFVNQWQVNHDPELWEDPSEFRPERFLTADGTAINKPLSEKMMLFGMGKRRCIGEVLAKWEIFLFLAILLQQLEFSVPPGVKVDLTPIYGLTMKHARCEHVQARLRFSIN

Spleen = assay: Clearance in Sprague-Dawley rat spleen at 10 mg/kg, po administered as single dose after 24 hrs by LC-MS/MS analysis; assay type: ADME, organism-based; parameters: dose 10 mg/kg, route oral; settings: in vivo
[32] = Terminal half life in cynomolgus monkey at 1 mg/kg, iv after 6 to 24 hrs by LC-MS/MS analysis; assay type: ADME, organism-based, Macaca fascicularis; parameters: dose 1 mg/kg, route intravenous; settings: in vivo, read-out: beta t1/2 (converted)
[33] = Plasma protein binding in rat after 1 hr by LC/MS/MS analysis; assay type: ADME, cell-free; settings: read-out: PPB (converted)
[34] = Systemic clearance in fasted Sprague-Dawley rat at 1 mg/kg, iv after 6 to 24 hrs by LC-MS/MS analysis; assay type: ADME, organism-based; parameters: dose 1 mg/kg, route intravenous; settings: in vivo
Lung = assay: Clearance in Sprague-Dawley rat lung at 10 mg/kg, po administered as single dose after 24 hrs by LC-MS/MS analysis; assay type: ADME, organism-based; parameters: dose 10 mg/kg, route oral; settings: in vivo

Structure (SMILES): C[C@@H]1CCCN1CCCOc1ccc(-c2ccc(=O)[nH]n2)cc1.Cl [IRDABISANT HYDROCHLORIDE]
- half-life [1]: 2.9 h
- remaining at 40 min [2]: > 98%
- CL (Plasma): > 98%
- Cmax [3]: 760 ng/mL
- half-life [4]: > 0.667 h
- IC50 (Cytochrome P450 2D6): > 30 µM
- AUC [5]: 1190 ng·h/mL
- half-life [6]: > 0.667 h
- AUC [7]: 984 ng·h/mL
- IC50 (Cytochrome P450 2C9): > 30 µM
- half-life [8]: 2.7 h
- fraction unbound at 1 h [9]: 0.68
- AUC [10]: 1920 ng·h/mL
- CL (Heart): > 98%
- Kp [11]: 2.6
- clearance [12]: 13.2 mL/min/kg
- IC50 (Cytochrome P450 3A4): > 30 µM
- half-life [13]: > 0.667 h
- fraction unbound at 1 h [14]: 0.56
- clearance [15]: 7.7 mL/min/kg
- Cmax [16]: 270 ng/mL
- IC50 (Cytochrome P450 2C19): > 30 µM
- Vd [17]: 3.5 L/kg
- Vd [18]: 9.4 L/kg
- half-life [19]: > 0.667 h
- Cmax (Canis familiaris): 230 ng/mL
- Vd [20]: 3.8 L/kg
- CL (Kidney): > 98%
- bioavailability [21]: 22%
- remaining at 40 min [22]: > 98%
- fraction unbound [23]: 0.4
- half-life [24]: 2.6 h
- CL (Liver): > 98%
- half-life [25]: 5 h
- bioavailability [26]: 83%
- remaining at 40 min [27]: > 98%
- half-life [28]: 2.9 h
- bioavailability [29]: 83%
- remaining at 40 min [30]: > 98%
- Kp [31]: 2.4
- CL (Brain): > 98%
- IC50 (Cytochrome P450 1A2): > 30 µM
- CL (Spleen): > 98%
- half-life [32]: 5.4 h
- fraction unbound at 1 h [33]: 0.61
- clearance [34]: 42 mL/min/kg
- CL (Lung): > 98%
